These results are taken from patent US6887876B2, “Benzamidine derivatives” (Ortho-McNeil Pharmaceutical, Inc., priority 2000, dated 2005).

The target in test [1] is δ-opioid receptor (Rattus norvegicus, UniProt P33533). The experiment in a line: Rat brain δ-opioid receptor binding assay ([3H]DPDPE).
Test [2] concerns the target μ-opioid receptor (Rattus norvegicus, UniProt P33535). The experiment in a line: Rat brain μ-opioid receptor binding assay ([3H]DAMGO).
Where [3] appears, read: rat forebrain preparation, [3H]DPDPE, 25° C., read-out: δ-Opioid Receptor Binding (Ki nM).
Setting [4] is: rat forebrain preparation, [3H]DAMGO, 25° C., read-out: μ-Opioid Receptor Binding (Ki nM).

Read-outs that look alike come from different tables or passages of the source.

Sequence of μ-opioid receptor (P33535 whole entry): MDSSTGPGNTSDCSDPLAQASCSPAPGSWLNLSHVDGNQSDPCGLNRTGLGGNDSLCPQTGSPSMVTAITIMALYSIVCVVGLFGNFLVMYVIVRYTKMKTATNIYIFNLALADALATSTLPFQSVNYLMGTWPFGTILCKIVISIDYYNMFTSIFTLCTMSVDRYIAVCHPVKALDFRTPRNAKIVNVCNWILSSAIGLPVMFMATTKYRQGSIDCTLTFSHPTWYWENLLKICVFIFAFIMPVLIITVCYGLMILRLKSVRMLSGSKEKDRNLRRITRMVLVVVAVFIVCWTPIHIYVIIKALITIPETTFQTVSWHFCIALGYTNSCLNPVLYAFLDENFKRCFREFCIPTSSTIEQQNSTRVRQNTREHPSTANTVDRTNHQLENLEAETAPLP
Sequence of δ-opioid receptor (P33533 whole entry): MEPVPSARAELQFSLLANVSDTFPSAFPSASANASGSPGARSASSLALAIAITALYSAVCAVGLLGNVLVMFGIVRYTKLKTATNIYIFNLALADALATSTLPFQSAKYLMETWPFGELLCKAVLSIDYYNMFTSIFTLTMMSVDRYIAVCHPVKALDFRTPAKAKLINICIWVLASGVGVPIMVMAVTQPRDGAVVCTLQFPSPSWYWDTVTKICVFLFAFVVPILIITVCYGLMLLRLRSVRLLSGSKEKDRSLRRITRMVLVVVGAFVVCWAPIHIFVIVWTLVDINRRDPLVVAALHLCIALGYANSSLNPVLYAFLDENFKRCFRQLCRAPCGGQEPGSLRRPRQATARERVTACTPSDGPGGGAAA

On to `CCN(CC)C(=O)c1ccc(C(=Nc2ccccc2C(F)(F)F)N2CCN(CCOC)CC2)cc1` [Compound 26, N,N-diethyl-4-[[4-(2-methoxyethyl)-1-piperazinyl][[2-(trifluoromethyl)phenyl]imino]methyl]-benzamide], for which the values for the Ki in test [1] and in test [2] were 22.9 nM and 2960 nM, respectively.
Consider `CCN(CC)C(=O)c1ccc(C(=Nc2ccccc2C(F)(F)F)N2CCN(Cc3ccccc3)CC2)cc1` [Compound 23, N,N-diethyl-4-[[4-(phenylmethyl)-1-piperazinyl][[2-(trifluoromethyl)phenyl]imino]methyl]-benzamide], for which the Ki in test [1] was determined as 1.22 nM; in test [2], 1200 nM.
Taken in the same sequence, the figures for `CCN(CC)C(=O)c1ccc(C(=Nc2ccccc2)N2CCN(Cc3ccccc3)CC2)cc1` [Compound 17, N,N-diethyl-4-[(phenylimino)[4-(phenylmethyl)-1-piperazinyl]methyl]-benzamide] were 212 nM and over 10000 nM.
Regarding `C=CCN1C[C@H](C)N(/C(=N/c2ccccc2)c2ccc(C(=O)OC)cc2)C[C@H]1C` [Compound 51, 4-[(E)-[(2S,5R)-2,5-dimethyl-4-(2-propenyl)piperazinyl](phenylimino)methyl]-benzoic acid methyl ester], the Ki in test [1] (setting [3]) was 405 nM; in test [2] (setting [4]) it was over 10000 nM.
As for `CCN(CC)C(=O)c1ccc(C(=Nc2ccc(Cl)cc2)N2CCN(Cc3ccccc3)CC2)cc1` [Compound 28, 4-[[(4-chlorophenyl)imino][4-(phenylmethyl)-1-piperazinyl]methyl]-N,N-diethyl-benzamide], the Ki is 142 nM in test [1] and over 10000 nM in test [2].
On to `COC(=O)c1ccc(C(=Nc2ccccc2)N2CCN(Cc3ccccc3)CC2)cc1` [Compound 37, 4-[(phenylimino)[4-(phenylmethyl)-1-piperazinyl]methyl]-benzoic acid methyl ester], for which the Ki in test [1] (setting [3]) is 1690 nM; in test [2] (setting [4]), over 10000 nM.
Regarding `C=CCN1CCN(C(=Nc2ccccc2)c2cccc(C(=O)N(CC)CC)c2)CC1` [Compound 53, N,N-diethyl-3-[(phenylimino)[4-(2-propenyl)-1-piperazinyl]methyl]-benzamide], the Ki is 7030 nM in test [1] (setting [3]) and over 10000 nM in test [2] (setting [4]).
Taken in the same sequence, the figures for “4-[[(2-chlorophenyl)imino](4-propyl-1-piperazinyl)methyl]-N,N-diethyl-benzamide [Compound 18]” were 157 nM and over 10000 nM.
Taken in the same sequence, the figures for `COC(=O)c1ccc(C(=Nc2ccccc2Cl)N2CCN(CCc3ccccc3)CC2)cc1` [Compound 40, 4-[[(2-chlorophenyl)imino][4-(2-phenylethyl)-1-piperazinyl]methyl]-benzoic acid methyl ester] were over 10000 nM and over 10000 nM.
The corresponding values for `COCCN1CCN(C(=Nc2ccccc2C(F)(F)F)c2ccc(C(=O)OC)cc2)CC1` [Compound 44, 4-[[4-(2-methoxyethyl)-1-piperazinyl][[2-(trifluoromethyl)phenyl]imino]methyl]-benzoic acid methyl ester] are 82.6 nM and 9150 nM.
As for “4-[(4-ethenyl-1-piperazinyl)(phenylimino)methyl]-benzoic acid methyl ester [Compound 36]”, the Ki in test [1] (setting [3]) is 954 nM; in test [2] (setting [4]), over 10000 nM.
With `CCN(CC)C(=O)c1ccc(C(=Nc2ccccc2C(F)(F)F)N2CCN(CCc3ccccc3)CC2)cc1` [Compound 24, N,N-diethyl-4-[[4-(2-phenylethyl)-1-piperazinyl][[2-(trifluoromethyl)phenyl]imino]methyl]-benzamide], the results for the Ki in test [1] and in test [2] were 545 nM and 1000 nM, respectively.
For “3-[(phenylimino)[4-(2-propenyl)-1-piperazinyl]methyl]-benzoic acid methyl ester [Compound 55]”, the Ki in test [1] (setting [3]) is 1170 nM; in test [2] (setting [4]) it was over 10000 nM.
The corresponding values for `COC(=O)c1ccc(C(=Nc2ccccc2)N2CCCN(CCc3ccccc3)CC2)cc1` [Compound 58, 4-[[hexahydro-4-(2-phenylethyl)-1H-1,4-diazepin-1-yl](phenylimino)methyl]-benzoic acid methyl ester] are 820 nM and 232 nM.
As for `COC(=O)c1ccc(C(=Nc2ccccc2C(F)(F)F)N2CCN(CCc3ccccc3)CC2)cc1` [Compound 41, 4-[[4-(2-phenylethyl)-1-piperazinyl][[2-(trifluoromethyl)phenyl]imino]methyl]-benzoic acid methyl ester], the Ki in test [1] (setting [3]) and in test [2] (setting [4]) was over 10000 nM throughout.
Regarding `COC(=O)c1ccc(C(=Nc2ccccc2Cl)N2CCN(CCc3cccs3)CC2)cc1` [Compound 43, 4-[[(2-chlorophenyl)imino][4-[2-(2-thienyl)ethyl]-1-piperazinyl]methyl]-benzoic acid methyl ester], the Ki in test [1] (setting [3]) and in test [2] (setting [4]) was over 10000 nM in each case.
For the compound `CCN1CCN(C(=Nc2ccccc2F)c2ccc(C(=O)OC)cc2)CC1` [Compound 33, 4-[(4-ethyl-1-piperazinyl)[(3-fluorophenyl)imino]methyl]-benzoic acid methyl ester], the Ki in test [1] (setting [3]) is 230 nM; in test [2] (setting [4]) it was over 10000 nM.
On to `CCN(CC)C(=O)c1ccc(C(=Nc2ccccc2)N2CCCN(CCc3ccccc3)CC2)cc1` [Compound 56, N,N-diethyl-4-[[hexahydro-4-(2-phenylethyl)-1H-1,4-diazepin-1-yl](phenylimino)methyl]-benzamide], for which the Ki in test [1] is 396 nM.
On to `COC(=O)c1ccc(C(=Nc2ccccc2Cl)N2CCCN(CCc3ccccc3)CC2)cc1` [Compound 59, 4-[[(2-chlorophenyl)imino][hexahydro-4-(2-phenylethyl)-1H-1,4-diazepin-1-yl]methyl]-benzoic acid methyl ester], for which the Ki came to 101 nM in test [1] (setting [3]) and 197 nM in test [2] (setting [4]).
The corresponding values for `COC(=O)c1ccc(C(=Nc2ccc(Cl)cc2)N2CCN(Cc3ccccc3)CC2)cc1` [Compound 38, 4-[[(4-chlorophenyl)imino][4-(phenylmethyl)-1-piperazinyl]methyl]-benzoic acid methyl ester] are 246 nM and over 10000 nM.
As for `CCN(CC)C(=O)c1ccc(C(=Nc2ccccc2)N2CCN(CCc3cccs3)CC2)cc1` [Compound 22, N,N-diethyl-4-[(phenylimino)[4-[2-(2-thienyl)ethyl]-1-piperazinyl]methyl]-benzamide], the Ki in test [1] was 764 nM; in test [2], over 10000 nM.
The corresponding values for `CCN(CC)C(=O)c1ccc(C(=Nc2ccccc2Cl)N2CCN(CCOC)CC2)cc1` [Compound 27, 4-[[(2-chlorophenyl)imino][4-(2-methoxyethyl)-1-piperazinyl]methyl]-N,N-diethyl-benzamide] are 53.5 nM and over 10000 nM.
As to `COC(=O)c1ccc(C(=Nc2ccccc2Cl)N2CCN(Cc3ccccc3)CC2)cc1` [Compound 39, 4-[[(2-chlorophenyl)imino][4-(phenylmethyl)-1-piperazinyl]methyl]-benzoic acid methyl ester], the Ki was 2010 nM in test [1] (setting [3]) and over 10000 nM in test [2] (setting [4]).
On to `CCN(CC)C(=O)c1ccc(C(=Nc2ccccc2Cl)N2CCCN(CCc3ccccc3)CC2)cc1` [Compound 57, 4-[[(2-chlorophenyl)imino][hexahydro-4-(2-phenylethyl)-1H-1,4-diazepin-1-yl]methyl]-N,N-diethyl-benzamide], for which the figures for the inhibition constant Ki in test [1] and in test [2] were 29.6 nM and 618 nM, respectively.
For the compound `C=CCN1CCN(C(=Nc2ccccc2Cl)c2cccc(C(=O)OC)c2)CC1` [Compound 54, 3-[[(2-chlorophenyl)imino][4-(2-propenyl)-1-piperazinyl]methyl]-benzoic acid methyl ester], the values for the Ki in test [1] (setting [3]) and in test [2] (setting [4]) were 2150 nM and 1610 nM, respectively.
The corresponding values for `COC(=O)c1ccc(C(=Nc2ccccc2)N2CCN(CCc3cccs3)CC2)cc1` [Compound 42, 4-[(phenylimino)[4-[2-(2-thienyl)ethyl]-1-piperazinyl]methyl]-benzoic acid methyl ester] are over 10000 nM and over 10000 nM.
For the compound `C=CCN1CCN(C(=Nc2ccccc2)c2ccc(C(=O)N(CC)CC)cc2)CC1` [Compound 15, N,N-diethyl-4-[(phenylimino)[4-(2-propenyl)-1-piperazinyl]methyl]-benzamide], the Ki is 859 nM in test [1] and over 10000 nM in test [2].
The corresponding values for `C=CCN1CCN(C(=Nc2ccccc2Cl)c2cccc(C(=O)N(CC)CC)c2)CC1` [Compound 52, 3-[[(2-chlorophenyl)imino][4-(2-propenyl)-1-piperazinyl]methyl]-N,N-diethyl-benzamide] are 487 nM and 600 nM.
In the case of `COCCN1CCN(C(=Nc2ccccc2Cl)c2ccc(C(=O)OC)cc2)CC1` [Compound 45, 4-[[(2-chlorophenyl)imino][4-(2-methoxyethyl)-1-piperazinyl]methyl]-benzoic acid methyl ester], the Ki in test [1] (setting [3]) is 299 nM; in test [2] (setting [4]) it was over 10000 nM.
The corresponding values for `COC(=O)c1ccc(C(=Nc2ccccc2Cl)N2CCN(c3ccccc3)CC2)cc1` [Compound 35, 4-[[(2-chlorophenyl)imino](4-phenyl-1-piperazinyl)methyl]-benzoic acid methyl ester] are 7640 nM and over 10000 nM.
With `CCN(CC)C(=O)c1ccc(C(=Nc2ccccc2Cl)N2CCN(CCc3ccccc3)CC2)cc1` [Compound 25, 4-[[(2-chlorophenyl)imino][4-(2-phenylethyl)-1-piperazinyl]methyl]-N,N-diethyl-benzamide], the Ki in test [1] and in test [2] was over 10000 nM each time.
